Reference: patent publication EP0347027B1, “Phenylpyridone derivatives,processes for their preparation and pharmaceutical compositions containing them” (SMITH KLINE & FRENCH LABORATORIES LIMITED, priority 1988, dated 1989)

How the values were obtained:
[1] = tested on: hindquarter blood flow; experiment: Vasodilatation in vivo (perfused hindquarters at constant pressure); details: Rattus norvegicus, iv; dose producing a 50% increase in hindquarter blood flow; bolus i.v.; anaesthetised male Wistar rats; read-out: EDHQ₅₀
Experimental: Male Wistar rats (300 g) were anaesthetised with a sodium 5-ethyl-5-(1-methylpropyl)-2-thiobarbiturate/sodium pentobarbitone mixture i.p. (62.5 and 22.5 mg/kg respectively). The trachea was cannulated and the rats breathed spontaneously air enriched with O₂ (5 ml/min). Blood pressure was recorded from a carotid artery and a jugular vein was cannulated for the administration of compounds. The temperature of the animal was maintained at 37°C by the use of an electric blanket. […] The perfusion circuit was primed with 5% bovine serum albumin dissolved in 0.9% sodium chloride solution, pH adjusted to 7.4. Initially the pump rate was set between 10 and 15 ml/min to match the hind quarter perfusion pressure to that of the systemic circulation. Once set, the pressure remained unaltered for the rest of the experiment. A change in the speed of the pump (equivalent to hindquarter blood flow) was used to assess the changes in hindquarter vascular resistance.
All compounds were administered as a bolus i.v. and from the dose response curves the dose required to produce a 50% increase in hindquarter blood flow (EDHQ₅₀) was determined in µmoles/kg.

[2] = tested on: bronchoconstrictor response; experiment: Anti-allergic activity (ovalbumen challenge in sensitised animals); type: in vivo, Duncan Hartley guinea-pigs; details: Cavia porcellus, iv, 0.5 h; dose of 11 µmol/kg i.v.; ovalbumen 1mg.kg⁻¹ i.v. challenge 30 minutes following drug administration; sensitised guinea-pigs; read-out: inhibition of the control bronchoconstrictor response
Experimental: Male Duncan Hartley guinea-pigs (250-300 g) were sensitised to ovalbumen by i.p. injection of 2 ml of 50mg.ml⁻¹ i.p. and 0.2 ml s.c. Three weeks later they were anaesthetised with 60mg.kg⁻¹ sodium pentabarbitone. The trachea was cannulated and the animal respired at a rate of 40 breaths per minute and at an initial tracheal inflation pressure of 16 mmHg. Tracheal inflation pressure was measured by a transducer connected to a side arm of the respiration circuit. The carotid artery was cannulated for the measurement of blood pressure and the signal was used to trigger an instantaneous rate meter. A jugular vein was cannulated for the administration of drug and allergen. After surgery the animals were allowed to stabilise and the drug was administered i.v. as a bolus. Following this, ovalbumen 1mg.kg⁻¹ was injected i.v. as the antigen challenge either 2, 15 or 30 minutes following drug treatment and the peak bronchoconstrictor response recorded. For the control group ovalbumen only was given. One ovalbumen challenge per guinea-pig was used and n = 6 for each time point. The percentage increase in tracheal inflation pressure was calculated.

CCCOc1ccccc1-c1ccc(C#N)c(=O)[nH]1 [Example 1, 3-Cyano-6-(2-propoxyphenyl)-2(1H)-pyridinone]
ED50 [1]: 11.5 µmol/kg

CCCOc1ccccc1-c1ccc(C(N)=O)c(=O)[nH]1 [Example 2, 6-(2-Propoxyphenyl)-1,2-dihydro-2-oxopyridine-3-carboxamide]
ED50 [1]: 14 µmol/kg | inhibition at 11 µmol/kg [2]: 44%
